Results reported in US12064426B2, “Selective inhibitors of ROCK1 and ROCK2 protein kinases and uses thereof” (GENOSCO Inc., priority 2021, dated 2024).

Columns and labels:
[1] = target: T1, Recombinant ROCK2 (amino acids 5-554) (Homo sapiens, UniProt O75116); assay: ROCK inhibition assay, LANCE Ultra TR-FRET kinase assay (ROCK2); type: biochemical; details: 4 μM ATP, 50 nM ULight-CREBtide substrate
T1 construct: ROCK2 (amino acids 5-554); by word order, ROCK2 from SignalChem
Protocol: (§1) Kinase IC50 was determined through an in vitro assay based on LANCE Ultra TR-FRET (Time-Resolved Fluorescence Resonance Energy Transfer) homogeneous technologies method (Perkin Elmer). Recombinant ROCK1 (amino acids 1-477) and ROCK2 (amino acids 5-554) proteins were purchased from Carna Biosciences and SignalChem. Compound activities were measured by Envision and IC50s were calculated. The assays were performed in white LUMITRAC™ 200 96 well half-area microplates from Greiner Bio-One. The kinase reaction buffer consisted of 50 mM HEPES pH 7.5, 1 mM EGTA, 10 mM MgCl2, 2 mM DTT and 0.01% Tween-20. Kinases were incubated with 50 nM (ULight-CREBtide) substrate in the presence of 1 (ROCK1) or 4 (ROCK2) μM ATP. The kinase reaction was carried out for 1 hour before addition of a stopping buffer to a final of 10 mM EDTA and 0.6 nM of LANCE Ultra Europium anti-phospho-CREB (Ser133) antibody (PerkinElmer TRF0200) in LANCE detection buffer. All assay incubations were performed at room temperature, and the microplates were sealed with polyester film during that time. The reaction was incubated for 1 hour, and the signal was read in Envision in TR-FRET mode (excitation at 320 nm and emission at 615/665 nm).
(§2) As used herein, a way to describe potency of inhibitory activity (nM) is a value of inhibitory activity at 50% (IC50).

[2] = target: T2, Recombinant ROCK1 (amino acids 1-477) (Homo sapiens, UniProt Q13464); assay: ROCK inhibition assay, LANCE Ultra TR-FRET kinase assay (ROCK1); type: biochemical; details: 1 μM ATP, 50 nM ULight-CREBtide substrate
T2 construct: Recombinant ROCK1 (amino acids 1-477); by word order, ROCK1 from Carna Biosciences
T2 sequence (Q13464 1-477): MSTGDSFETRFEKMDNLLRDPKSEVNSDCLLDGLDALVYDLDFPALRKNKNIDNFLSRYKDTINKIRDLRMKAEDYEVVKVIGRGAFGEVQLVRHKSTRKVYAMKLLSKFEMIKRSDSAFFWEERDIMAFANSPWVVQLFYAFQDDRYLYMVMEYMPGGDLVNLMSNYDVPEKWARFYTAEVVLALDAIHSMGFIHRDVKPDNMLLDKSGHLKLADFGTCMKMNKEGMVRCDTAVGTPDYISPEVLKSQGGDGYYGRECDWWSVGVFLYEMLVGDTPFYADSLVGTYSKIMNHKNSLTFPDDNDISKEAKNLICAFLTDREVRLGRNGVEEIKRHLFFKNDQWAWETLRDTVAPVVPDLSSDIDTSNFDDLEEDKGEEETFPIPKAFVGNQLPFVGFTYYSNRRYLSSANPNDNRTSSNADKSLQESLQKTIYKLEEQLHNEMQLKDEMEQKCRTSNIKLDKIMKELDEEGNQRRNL
Protocol: as §1, §2

T1 sequence (O75116 5-554): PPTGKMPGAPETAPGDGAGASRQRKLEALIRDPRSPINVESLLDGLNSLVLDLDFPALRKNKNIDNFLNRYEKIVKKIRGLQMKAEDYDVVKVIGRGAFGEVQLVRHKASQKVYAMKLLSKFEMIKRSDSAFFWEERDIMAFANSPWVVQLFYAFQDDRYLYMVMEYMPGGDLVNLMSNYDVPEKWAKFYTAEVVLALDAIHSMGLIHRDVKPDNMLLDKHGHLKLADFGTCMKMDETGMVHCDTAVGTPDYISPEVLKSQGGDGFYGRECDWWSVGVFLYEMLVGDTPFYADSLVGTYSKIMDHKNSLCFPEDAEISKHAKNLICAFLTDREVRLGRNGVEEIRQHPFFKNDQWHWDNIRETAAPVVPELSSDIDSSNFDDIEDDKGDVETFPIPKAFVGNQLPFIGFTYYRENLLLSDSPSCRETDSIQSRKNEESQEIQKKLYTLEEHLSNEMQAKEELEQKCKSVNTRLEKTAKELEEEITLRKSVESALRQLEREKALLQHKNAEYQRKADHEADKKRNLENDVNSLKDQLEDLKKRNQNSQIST

Row | SMILES | IC50 [1] | IC50 [2]
1 | O=C(NCC1CCNCC1)c1cccc(Cn2ccc3cc(N4CCOCC4)ccc3c2=O)c1 [Compound 217] | 0.01 to 0.1 µM | 0.101 to 0.5 µM
2 | Nc1cc(-c2ccc3c(=O)n(Cc4cccc(C(=O)N[C@H]5CC[C@@H](O)CC5)c4)ccc3c2)ccn1 [Compound 192] | 0.01 to 0.1 µM | 0.011 to 0.1 µM
3 | Cc1n[nH]cc1-c1ccc2c(=O)n(Cc3cccc(C(=O)Nc4ccccc4OC(F)(F)F)c3)ccc2c1 [Compound 38] | 0.1 to 0.5 µM | > 0.501 µM
4 | CN1CC(CNC(=O)c2cccc(Cn3ccc4cc(-c5ccnn5C)ccc4c3=O)c2)C1 [Compound 113] | < 0.01 µM | 0.011 to 0.1 µM
5 | Nc1cc(-c2ccc3c(=O)n(Cc4cccc(C(=O)Nc5nc6c(s5)CNCC6)c4)ccc3c2)ccn1 [Compound 190] | < 0.01 µM | < 0.01 µM
6 | COc1cccc(Cn2cnc3cc(-c4c[nH]nc4C)ccc3c2=O)c1 [Compound 355] | 0.01 to 0.1 µM | 0.011 to 0.1 µM
7 | [2H]C([2H])([2H])NC(=O)c1cccc(Cn2cnc3cc(-c4cn[nH]c4Br)ccc3c2=O)c1 [Compound 511] | < 0.01 µM | 0.011 to 0.1 µM
8 | CNC(=O)c1cccc(Cn2ccc3cc(-c4cnoc4)ccc3c2=O)c1 [Compound 300] | > 0.5 µM | > 0.501 µM
9 | Cn1nccc1-c1ccc2c(=O)n(Cc3cccc(C(=O)N[C@H]4C[C@@H](O)C4)c3)cnc2c1 [Compound 427] | < 0.01 µM | 0.011 to 0.1 µM
10 | O=C(NCC1CCN(C2COC2)CC1)c1cccc(Cn2ccc3cc(N4CCOCC4)ccc3c2=O)c1 [Compound 227] | 0.01 to 0.1 µM | 0.101 to 0.5 µM
11 | CC(C)NC(=O)c1cccc([C@@H](C)n2cnc3cc(-c4cn[nH]c4C(F)(F)F)ccc3c2=O)c1 [Compound 445] | < 0.01 µM | 0.011 to 0.1 µM
12 | Cc1nocc1-c1cc2ccn(Cc3cc(F)cc(C(=O)NCC4CCN(C)CC4)c3)c(=O)c2cn1 [Compound 265] | < 0.01 µM | 0.011 to 0.1 µM
13 | Cn1nccc1-c1ccc2c(=O)n(Cc3cccc(C(=O)NCC4CCN(CC(F)F)CC4)c3)ccc2c1 [Compound 170] | < 0.01 µM | 0.011 to 0.1 µM
14 | CC(C)N1CCC(NC(=O)c2cccc(Cn3ccc4cc(-c5ccnn5C)ccc4c3=O)c2)CC1 [Compound 118] | 0.01 to 0.1 µM | 0.101 to 0.5 µM
15 | COc1cc(F)cc(Cn2ccc3cc(-c4c[nH]nc4Cl)ccc3c2=O)c1 [Compound 17] | < 0.01 µM | 0.011 to 0.1 µM
16 | Cc1nocc1-c1ccc2c(=O)n([C@H](C)c3cccc(C(=O)N(C)C)c3)cnc2c1 [Compound 470] | > 0.5 µM | > 0.501 µM
17 | O=C(NC1CCOCC1)c1cccc(Cn2cnc3cc(-c4cn[nH]c4C(F)(F)F)ccc3c2=O)c1 [Compound 376] | < 0.01 µM | 0.011 to 0.1 µM
18 | CC(=O)Nc1cccc(Cn2ccc3cc(-c4c[nH]nc4C(F)F)ccc3c2=O)c1 [Compound 341] | 0.01 to 0.1 µM | 0.101 to 0.5 µM
19 | COc1cccc(Cn2cnc3cc(-c4ccnn4C)ccc3c2=O)c1 [Compound 358] | 0.01 to 0.1 µM | 0.011 to 0.1 µM
20 | Cc1nocc1-c1ccc2c(=O)n(Cc3cc(F)cc(C(=O)N[C@H]4CC[C@H](O)CC4)c3)ccc2c1 [Compound 139] | 0.1 to 0.5 µM | 0.101 to 0.5 µM
21 | CNC(=O)c1cccc(Cn2ccc3cc(-c4cnn(C)c4)ccc3c2=O)c1 [Compound 299] | > 0.5 µM | > 0.501 µM
22 | Cn1nccc1-c1ccc2c(=O)n(Cc3cc(F)cc(C(=O)NC4CCOCC4)c3)ccc2c1 [Compound 166] | 0.01 to 0.1 µM | 0.101 to 0.5 µM
23 | Cc1nocc1-c1ccc2c(=O)n(Cc3cc(F)cc(C(=O)NCCN4CCOCC4)c3)ccc2c1 [Compound 143] | 0.01 to 0.1 µM | 0.101 to 0.5 µM
24 | C[C@H](c1cccc(C(=O)NCC2COC2)c1)n1cnc2cc(-c3ccnn3C)ccc2c1=O [Compound 479] | < 0.01 µM | 0.011 to 0.1 µM
25 | C[C@H](c1cccc(C(=O)Nc2ccon2)c1)n1cnc2cc(-c3cn[nH]c3C(F)(F)F)ccc2c1=O [Compound 448] | – | 0.101 to 0.5 µM
